# Experimental data from patent US20250388542A1, “ANALOGUES OF PENTAMIDINE AND USES THEREFOR” (Auransa Inc., priority 2018, published 2025).
# What was measured:
# [1] = Tolerance in non-tumor bearing BALB/c nude mice; assay type: in vivo
# Description: The objective of this research is to assess Compound 1 tolerance in non-tumor bearing mice in BALB/c nude mice. Compound 1 exposure in plasma, liver, kidney, colon and bladder as well as serum-derived blood chemistries were tested.
# Thirty-six (36) female BALB/c nude mice of age 6-8 weeks having body weight of around 19-23 g were kept in individual ventilation cages at constant temperature (20˜26° C.) and humidity (40-70%) with 3 animals per cage. Animals had free access to irradiation sterilized dry granule food and sterile drinking water during the entire study period.
# After grouping, the animals were checked daily for morbidity and mortality. At the time of routine monitoring, the animals were measured for any effects on behavior such as mobility, food and water consumption, body weight gain/loss. Body weights were measured daily. Death and other clinical signs were recorded.
# Animals from each group were tested and samples collected at two different time points for blood chemistry tests as well as compound concentration in plasma, kidney, liver, colon and bladder. The first sampling was performed right before the last dose (0 h) on Day 21; and the second sampling was performed 1 hour after the last dose (1 h) on day 21. Detailed descriptions for sampling methods are as follows: […]
# [2] = tested on: SK-NEP-1; assay: CellTiter-Glo cytotoxicity, cancer cell line panel; assay type: cell-based; details: Homo sapiens; SK-NEP-1, Ewing sarcoma
# Description: (§1) The objective of this study is to investigate potential cell killing effect of Compounds 1-15 on 3 cancer cell lines. 50% inhibition concentration (IC50) was determined for these compounds in various cancer cell lines using CellTiter-Glo™ luminescent cell viability assay at different compound concentrations. Each cell line (e.g., NCI-H209; NCI-H69; and SW1271) was treated with Compounds 1-15 and culture medium contains 0.2% [v/v] DMSO vehicle control. All the cells were cultured in the media supplemented with 10-20% fetal bovine serum at 37° C., 5% CO2 and 95% humidity.
# (§2) The objective of this study is to investigate the effect of Compound 1 on cytotoxicity against 61 different types of cancer cell lines. IC50 were values were obtained using CellTiter-Glo™ as described above. Each cell line shown in Table 3 was treated with Compound 1, a standard chemotherapy drug, cisplatin, as reference control and culture medium contains 0.2% [v/v] DMSO vehicle control. All cancer cell lines were cultured in media supplemented with 10-20% fetal bovine serum at 37° C., 5% CO2 and 95% humidity.
# [3] = tested on: HUH-1; assay: CellTiter-Glo cytotoxicity, cancer cell line panel; assay type: cell-based; details: Homo sapiens; HUH-1, Hepatocellular carcinoma
# Description: as §1, §2
# [4] = tested on: SK-HEP-1; assay: CellTiter-Glo cytotoxicity, cancer cell line panel; assay type: cell-based; details: Homo sapiens, SK-HEP1; SK-HEP-1, Hepatocellular carcinoma
# Description: as §1, §2
# [5] = tested on: PLC/PRF/5; assay: CellTiter-Glo cytotoxicity, cancer cell line panel; assay type: cell-based; details: Homo sapiens; PLC/PRF/5, Hepatocellular carcinoma
# Description: as §1, §2
# [6] = tested on: SNU-761; assay: CellTiter-Glo cytotoxicity, cancer cell line panel; assay type: cell-based; details: SNU-761, Hepatocellular carcinoma
# Description: as §1, §2
# [7] = tested on: BT-474; assay: CellTiter-Glo cytotoxicity, cancer cell line panel; assay type: cell-based; details: Homo sapiens; BT-474, Invasive ductal carcinoma
# Description: as §1, §2
# [8] = tested on: NCI-H1975; assay: CellTiter-Glo cytotoxicity, cancer cell line panel; assay type: cell-based; details: Homo sapiens; NCI-H1975, Lung adenocarcinoma
# Description: as §1, §2
# [9] = tested on: JHH-4; assay: CellTiter-Glo cytotoxicity, cancer cell line panel; assay type: cell-based; details: JHH-4, Hepatocellular carcinoma
# Description: as §1, §2
# [10] = tested on: Hep3B; assay: CellTiter-Glo cytotoxicity, cancer cell line panel; assay type: cell-based; details: Homo sapiens, Hepatocellular carcinoma
# Description: as §1, §2
# [11] = tested on: A498; assay: CellTiter-Glo cytotoxicity, cancer cell line panel; assay type: cell-based; details: Homo sapiens; A498, Renal cell carcinoma
# Description: as §1, §2
# [12] = tested on: OS-RC-2; assay: CellTiter-Glo cytotoxicity, cancer cell line panel; assay type: cell-based; details: Homo sapiens; OS-RC-2, Renal cell carcinoma
# Description: as §1, §2
# [13] = tested on: Hep G2; assay: CellTiter-Glo cytotoxicity, cancer cell line panel; assay type: cell-based; details: Homo sapiens, HepG2; Hep G2, Hepatoblastoma carcinoma
# Description: as §1, §2
# [14] = tested on: LN-229; assay: CellTiter-Glo cytotoxicity, cancer cell line panel; assay type: cell-based; details: Homo sapiens; LN-229, Glioblastoma
# Description: as §1, §2
# [15] = tested on: SW 156; assay: CellTiter-Glo cytotoxicity, cancer cell line panel; assay type: cell-based; details: SW 156, Renal cell carcinoma
# Description: as §1, §2
# [16] = tested on: SNU-398; assay: CellTiter-Glo cytotoxicity, cancer cell line panel; assay type: cell-based; details: Homo sapiens; SNU-398, Hepatocellular carcinoma
# Description: as §1, §2
# [17] = tested on: MHCC97-H; assay: CellTiter-Glo cytotoxicity, cancer cell line panel; assay type: cell-based; details: Homo sapiens, MHCC97H, Hepatocellular carcinoma
# Description: as §1, §2
# [18] = tested on: JHH-5; assay: CellTiter-Glo cytotoxicity, cancer cell line panel; assay type: cell-based; details: JHH-5, Hepatocellular carcinoma
# Description: as §1, §2
# [19] = tested on: 769-P; assay: CellTiter-Glo cytotoxicity, cancer cell line panel; assay type: cell-based; details: Homo sapiens, Renal cell carcinoma
# Description: as §1, §2
# [20] = tested on: OZ; assay: CellTiter-Glo cytotoxicity, cancer cell line panel; assay type: cell-based; details: Intrahepatic cholangiocarcinoma
# Description: as §1, §2
# [21] = tested on: HCT 116; assay: CellTiter-Glo cytotoxicity, cancer cell line panel; assay type: cell-based; details: Homo sapiens; HCT 116, Colon carcinoma
# Description: as §1, §2
# [22] = tested on: SNU-475; assay: CellTiter-Glo cytotoxicity, cancer cell line panel; assay type: cell-based; details: Homo sapiens; SNU-475, Hepatocellular carcinoma
# Description: as §1, §2
# [23] = tested on: SNU-354; assay: CellTiter-Glo cytotoxicity, cancer cell line panel; assay type: cell-based; details: Homo sapiens; SNU-354, Hepatocellular carcinoma
# Description: as §1, §2
# [24] = tested on: HLF; assay: CellTiter-Glo cytotoxicity, cancer cell line panel; assay type: cell-based; details: Hepatocellular carcinoma
# Description: as §1, §2
# [25] = tested on: HUH-7; assay: CellTiter-Glo cytotoxicity, cancer cell line panel; assay type: cell-based; details: Homo sapiens; HUH-7, Hepatocellular carcinoma
# Description: as §1, §2
# [26] = tested on: SNU-739; assay: CellTiter-Glo cytotoxicity, cancer cell line panel; assay type: cell-based; details: SNU-739, Hepatocellular carcinoma
# Description: as §1, §2
# [27] = tested on: SNU-423; assay: CellTiter-Glo cytotoxicity, cancer cell line panel; assay type: cell-based; details: Homo sapiens; SNU-423, Hepatocellular carcinoma
# Description: as §1, §2
# [28] = tested on: MKN45; assay: CellTiter-Glo cytotoxicity, cancer cell line panel; assay type: cell-based; details: Homo sapiens, MKN-45; MKN45, Gastric adenocarcinoma
# Description: as §1, §2
# [29] = tested on: HuCCT1; assay: CellTiter-Glo cytotoxicity, cancer cell line panel; assay type: cell-based; details: Homo sapiens, HuCCT-1; HuCCT1, Intrahepatic cholangiocarcinoma
# Description: as §1, §2
smiles,measurement,setting,value
"N=C(N)c1ccc(OCCCCCOc2ccc(C(=N)N)nc2)cc1 [Compound 1, 5-(5-(4-carbamimidoylphenoxy)pentyloxy)picolinimidamide]","tolerability, body weight loss","[1]; 5 mg/kg QD, 10 mg/kg QD, 10 mg/kg Q2D and 20 mg/kg QD, PO, 21 days",well tolerated with no obvious body weight loss
same,body weights compared with vehicle control group,"[1]; 40 mg/kg QD PO, day 20 and 21",lower in a statistically significant manner at day 20 and 21
same,IC50,[2],1930 nM
same,IC50,[3],3200 nM
same,IC50,[4],4720 nM
same,IC50,[5],4130 nM
same,IC50,[6],3310 nM
same,IC50,[7],15700 nM
same,IC50,[8],2660 nM
same,IC50,[9],1270 nM
same,IC50,[10],280 nM
same,IC50,[11],1170 nM
same,IC50,[12],1700 nM
same,IC50,[13],340 nM
same,IC50,[14],1600 nM
same,IC50,[15],6280 nM
same,IC50,[16],220 nM
same,IC50,[17],8310 nM
same,IC50,[18],650 nM
same,IC50,[19],1630 nM
same,IC50,[20],9390 nM
same,IC50,[21],2670 nM
same,IC50,[22],1250 nM
same,IC50,[23],840 nM
same,IC50,[24],2040 nM
same,IC50,[25],970 nM
same,IC50,[26],2230 nM
same,IC50,[27],1750 nM
same,IC50,[28],640 nM
same,IC50,[29],8010 nM
